From PMC9939323 (Acta Pharmaceutica Sinica. B, 2022) come the findings set out here.

Assay [1] concerns the target neuraminidase (NA) of H1N1 (A/PR/8/34) (Influenza A virus (A/Puerto Rico/8/1934(H1N1)), UniProt P03468). The assay can be described thus: NA-Fluor fluorescence assay, whole virus. In kind it is biochemical. Conditions: read-out: % inhibition at 10 μmol/L.
Assay [2] shares this target. Nature of the assay: NA-Fluor fluorescence assay, whole virus. In kind it is biochemical. Conditions: NA-Fluor substrate, […] °C, […] min preincubation, […] h.

neuraminidase (NA) of H1N1 (A/PR/8/34) (Influenza A virus (A/Puerto Rico/8/1934(H1N1)), UniProt P03468), sequence (P03468 whole entry): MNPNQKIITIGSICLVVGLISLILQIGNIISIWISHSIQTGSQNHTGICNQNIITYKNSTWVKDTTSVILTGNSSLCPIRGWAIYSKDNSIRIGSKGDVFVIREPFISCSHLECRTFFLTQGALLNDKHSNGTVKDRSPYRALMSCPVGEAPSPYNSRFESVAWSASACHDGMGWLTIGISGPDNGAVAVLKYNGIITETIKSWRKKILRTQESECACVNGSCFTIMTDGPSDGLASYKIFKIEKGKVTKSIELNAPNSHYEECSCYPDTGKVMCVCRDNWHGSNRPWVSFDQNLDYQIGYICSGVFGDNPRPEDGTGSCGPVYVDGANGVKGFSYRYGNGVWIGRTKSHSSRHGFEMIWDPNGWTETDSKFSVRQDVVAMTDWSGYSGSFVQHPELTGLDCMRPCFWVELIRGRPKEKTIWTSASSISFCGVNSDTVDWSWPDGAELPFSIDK

`Oc1ccc([C@H]2c3c(O)cc(O)cc3[C@H]3c4c(cc(O)cc4[C@@H]2c2cc(/C=C/c4cc(O)cc5c4[C@H](c4cc(O)cc(O)c4)[C@@H](c4ccc(O)cc4)O5)ccc2O)O[C@@H]3c2ccc(O)cc2)cc1` [vitisin A]: the inhibition at 10 µM in assay [1] worked out at 43%.

For the compound `Oc1ccc(/C=C/c2cc(O)cc3c2[C@@H](c2cc(O)cc(O)c2)[C@H](c2ccc(O)cc2)O3)cc1` [ε-viniferin], in assay [2], the “% inhibition at 10 μmol/L” value was “Ampelopsin A and ε-viniferin exhibited weak inhibitory effects”.
